The IC50 is the concentration needed to halve the response being measured. A lower IC50 goes with inhibition by little substance.

One data set relates to K562. Kind of data set: Anticancer activity against human K562 cells. In kind it is functional, cell-based.
The target of data set [1] is T1, Albumin (Homo sapiens, UniProt P02768). As to the kind of experiment: Binding affinity to human serum albumin at 289 kelvin by fluorescence quenching measurement in presence of Ca2+ ions. In kind it is ADME. Conditions: isolated protein.
Data set [2] deals with T1, Albumin. Kind of data set: Binding affinity to human serum albumin at 289 kelvin by fluorescence quenching measurement in presence of Zn2+ ions. It counts as ADME. The note with it: isolated protein.
Data set [3] deals with T1, Albumin. As to the kind of experiment: Binding affinity to human serum albumin at 299 kelvin by fluorescence quenching measurement. In kind it is ADME. The note with it: isolated protein.
Data set [4] has as its target T1, Albumin. Kind of data set: Binding affinity to human serum albumin at 289 kelvin by fluorescence quenching measurement in presence of Ni2+ ions. The note with it: isolated protein. In kind it is ADME.
The target of data set [5] is T1, Albumin. As to the kind of experiment: Binding affinity to human serum albumin at 289 kelvin by fluorescence quenching measurement. In kind it is ADME. The note with it: isolated protein.
The target of data set [6] is T1, Albumin. As to the kind of experiment: Binding affinity to human serum albumin at 289 kelvin by fluorescence quenching measurement in presence of [NO3]- ions. It counts as ADME. The note with it: isolated protein.
The target in data set [7] is T1, Albumin. Kind of data set: Binding affinity to human serum albumin at 289 kelvin by fluorescence quenching measurement in presence of Cd2+ ions. It counts as ADME. Conditions: isolated protein.
Data set [8] addresses T1, Albumin. Kind of data set: Binding affinity to human serum albumin at 289 kelvin by fluorescence quenching measurement in presence of Hg2+ ions. It counts as ADME. Conditions: isolated protein.
In data set [9] the target is T1, Albumin. Kind of data set: Binding affinity to human serum albumin at 289 kelvin by fluorescence quenching measurement in presence of Fe3+ ions. In kind it is ADME. The note with it: isolated protein.
For data set [10], the target named is T1, Albumin. Kind of data set: Binding affinity to human serum albumin at 289 kelvin by fluorescence quenching measurement in presence of F- ions. It counts as ADME. The note with it: isolated protein.
For data set [11], the target named is T1, Albumin. Kind of data set: Binding affinity to human serum albumin at 289 kelvin by fluorescence quenching measurement in presence of Bi3+ ions. In kind it is ADME. The note with it: isolated protein.
Data set [12] addresses T1, Albumin. As to the kind of experiment: Binding affinity to human serum albumin at 289 kelvin by fluorescence quenching measurement in presence of Al3+ ions. It counts as ADME. Conditions: isolated protein.
Data set [13] deals with T1, Albumin. Kind of data set: Binding affinity to human serum albumin at 289 kelvin by fluorescence quenching measurement in presence of [CO3]2- ions. It counts as ADME. The note with it: isolated protein.
Data set [14] has as its target T1, Albumin. As to the kind of experiment: Binding affinity to human serum albumin at 289 kelvin by fluorescence quenching measurement in presence of Pb2+ ions. In kind it is ADME. Conditions: isolated protein.
Data set [15] concerns the target T1, Albumin. As to the kind of experiment: Binding affinity to human serum albumin at 309 kelvin by fluorescence quenching measurement. It counts as ADME. The note with it: isolated protein.
Data set [16] addresses T1, Albumin. As to the kind of experiment: Binding affinity to human serum albumin at 289 kelvin by fluorescence quenching measurement in presence of [Sio3]2- ions. The note with it: isolated protein. It counts as ADME.
Data set [17] concerns the target T1, Albumin. Kind of data set: Binding affinity to human serum albumin at 289 kelvin by fluorescence quenching measurement in presence of Mg2+ ions. It counts as ADME. Conditions: isolated protein.
The target of data set [18] is T1, Albumin. Kind of data set: Binding affinity to human serum albumin at 289 kelvin by fluorescence quenching measurement in presence of K+ ions. It counts as ADME. The note with it: isolated protein.
Data set [19] deals with T1, Albumin. Kind of data set: Binding affinity to human serum albumin at 289 kelvin by fluorescence quenching measurement in presence of [SO4]2- ions. It counts as ADME. The note with it: isolated protein.

Molecules are shown by their SMILES.

T1 sequence (P02768 whole entry): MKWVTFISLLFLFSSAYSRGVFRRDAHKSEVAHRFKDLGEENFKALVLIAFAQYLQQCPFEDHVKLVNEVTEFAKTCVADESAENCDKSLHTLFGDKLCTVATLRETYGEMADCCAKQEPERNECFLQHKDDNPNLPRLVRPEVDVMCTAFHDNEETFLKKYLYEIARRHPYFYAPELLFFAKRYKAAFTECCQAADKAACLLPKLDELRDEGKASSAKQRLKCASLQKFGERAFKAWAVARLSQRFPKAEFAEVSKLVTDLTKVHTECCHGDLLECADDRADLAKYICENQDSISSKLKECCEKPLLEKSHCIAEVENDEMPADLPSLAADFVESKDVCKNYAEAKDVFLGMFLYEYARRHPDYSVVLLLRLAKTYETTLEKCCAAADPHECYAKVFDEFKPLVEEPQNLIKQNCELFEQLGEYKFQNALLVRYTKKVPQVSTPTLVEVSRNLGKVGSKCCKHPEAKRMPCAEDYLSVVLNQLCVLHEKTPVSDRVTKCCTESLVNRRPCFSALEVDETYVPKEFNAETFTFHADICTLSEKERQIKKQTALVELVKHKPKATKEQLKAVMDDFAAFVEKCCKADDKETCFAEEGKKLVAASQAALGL

The compound `CO[C@H]1[C@H](O)[C@@H](O)[C@H](n2c3c(Cl)cccc3c3c4c(c5c6cccc(Cl)c6[nH]c5c32)C(=O)NC4=O)O[C@@H]1CO` [REBECCAMYCIN] yielded an IC50 in the data set with K562 of 4 µM.

Regarding `CN1C(=O)c2c(c3c4ccccc4n([C@@H]4O[C@H](CO)[C@@H](O)[C@H](O)[C@H]4O)c3c3[nH]c4ccccc4c23)C1=O`, the K at Albumin [1] is given as 7.17 ×10⁶ L/mol; on Albumin [2] it was 7.12 ×10⁶ L/mol; at Albumin [3] it was 195000 L/mol; on Albumin [4], 5.32 ×10⁶ L/mol; on Albumin [5] it was 231000 L/mol; on Albumin [6], 3.4 ×10⁶ L/mol. Moreover, the K at Albumin [7] is given as 4.56 ×10⁶ L/mol; on Albumin [8], 8.41 ×10⁶ L/mol; at Albumin [9] it was 3.48 ×10⁶ L/mol; at Albumin [10], 8.78 ×10⁶ L/mol; on Albumin [11] it was 7.01 ×10⁶ L/mol; on Albumin [12], 3.93 ×10⁶ L/mol. Also, the K on Albumin [13] was found to be 3.48 ×10⁶ L/mol; at Albumin [14], 4.87 ×10⁶ L/mol; at Albumin [15] it was 145000 L/mol; on Albumin [16], 6.68 ×10⁶ L/mol; on Albumin [17] it was 4.76 ×10⁶ L/mol; on Albumin [18], 8.9 ×10⁶ L/mol. Besides, at Albumin [19], the K is 4.33 ×10⁶ L/mol.

These data come from ChEMBL document CHEMBL1155954, “A concise approach to 1,11-didechloro-6-methyl-4'-O-demethyl rebeccamycin and its binding to human serum albumin: fluorescence spectroscopy and molecular modeling method” (Bioorg Med Chem, 2008).
